Results reported in patent US20200031778A1, “NOVEL 5-SUBSTITUTED IMIDAZOLYLMETHYL DERIVATIVES” (Bayer CropScience Aktiengesellschaft, priority 2016, published 2020).

Test: Log P by HPLC on reversed phase columns (EEC directive 79/831 Annex V.A8; methods [a], [b], [c])
Format: physicochemical
Conditions: not given
In short: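 Log P derived from retention times, interpolated linearly between bracketing straight-chain alkan-2-ones (3–16 carbons) of known Log P. Eluents ran acetonitrile 10% to 95% against water with 0.1% formic acid ([a], acidic), 0.001 M ammonium acetate ([b], neutral) or 0.1% phosphoric acid ([c], acidic); UV read-out.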

| LogP | SMILES |
| --- | --- |
| 2.44^[a] | N#Cc1cncn1CC(O)(c1ccc(Cl)c(F)c1)C1(F)CC1 (stereo not drawn) [I-446] |
| 2.64^[a] | CC(C)(C)C(O)(Cn1cncc1C#N)c1cc(F)cc(F)c1 (stereo not drawn) [I-457] |
| 2.51^[a] | N#Cc1cncn1CC(O)(CC1CC1)c1cc(F)c(F)c(F)c1 (stereo not drawn) [I-501] |
| 3.74^[a] | N#Cc1cncn1CC(O)(c1ccc(C#CC2CCCC2)cc1F)C1(F)CC1 (stereo not drawn) [I-644] |
| 3.52^[a] | CCCC#Cc1ccc(C(O)(Cn2cncc2C#N)C2(F)CC2)c(Cl)c1 (stereo not drawn) [I-641] |
| 2.78^[a] | N#Cc1cncn1CC(O)(c1ccc(C(F)(F)F)cc1Br)C1(F)CC1 (stereo not drawn) [I-435] |
| 2.58^[a] | N#Cc1cncn1CC(O)(c1cc(F)c(F)c(Br)c1)C1(F)CC1 (stereo not drawn) [I-471] |
| 3.01^[a] | CC(C)(C)C(O)(Cn1cncc1C#N)c1cc(F)c(Cl)c(F)c1 (stereo not drawn) [I-491] |
| 2.52^[a] | N#Cc1cncn1CC(O)(c1cc(Cl)cc(F)c1Cl)C1(F)CC1 (stereo not drawn) [I-571] |
| 2.52^[a] | C#Cc1ccc(C(O)(Cn2cncc2C#N)C2(Cl)CC2)c(Cl)c1 (stereo not drawn) [I-370] |
| 3.64^[a] | N#Cc1cncn1CC(O)(c1ccc(Oc2ccc(Cl)cc2)cc1Cl)C1(F)CC1 (stereo not drawn) [I-390] |
| 2.34^[a] | COc1cc(C(O)(Cn2cncc2C#N)C2(F)CC2)c(F)cc1Cl (stereo not drawn) [I-508] |
| 2.80^[a] | N#Cc1cncn1CC(O)(c1cc(Cl)c(Cl)cc1F)C1(Cl)CC1 (stereo not drawn) [I-621] |
| 2.70^[a] | N#Cc1cncn1CC(O)(c1cc(Cl)c(F)cc1Cl)C1(Cl)CC1 (stereo not drawn) [I-581] |
| 1.99^[a] | N#Cc1cncn1CC(O)(CC1CC1)C1(F)CC1 (stereo not drawn) [I-504] |
| 2.47^[a] | N#Cc1cncn1CC(O)(c1ccc(F)cc1C(F)(F)F)C1CC1 (stereo not drawn) [I-467] |
| 2.35^[a] | N#Cc1cncn1CC(O)(c1ccc(F)c(Br)c1F)C1(F)CC1 (stereo not drawn) [I-625] |
| 2.56^[a] | N#Cc1cncn1CC(O)(CC1CC1)c1ccc(Cl)c(F)c1 (stereo not drawn) [I-486] |
| 2.76^[a] | N#Cc1cncn1CC(O)(c1cc(Cl)cc(Cl)c1F)C1(Cl)CC1 (stereo not drawn) [I-609] |
| 2.58^[a] | CC(O)(Cn1cncc1C#N)c1cnc(Oc2ccc(Br)nc2)cc1C(F)(F)F (stereo not drawn) [I-362] |
| 2.54^[a] | N#Cc1cncn1CC(O)(c1cc(Cl)cc(F)c1F)C1(Cl)CC1 (stereo not drawn) [I-611] |

| LogP | SMILES |
| --- | --- |
| 2.35^[a] | N#Cc1cncn1CC(O)(c1ccc(F)c(Cl)c1F)C1(F)CC1 (stereo not drawn) [I-635] |
| 2.45^[a] | N#Cc1cncn1CC(O)(c1cc(F)c(Cl)cc1F)C1(F)CC1 (stereo not drawn) [I-580] |
| 2.30^[a] | N#Cc1cncn1CC(O)(C#CC1CCCC1)C1(F)CC1 (stereo not drawn) [I-453] |
| 3.21^[a] | COc1ccc(C(O)(Cn2cncc2C#N)CC(C)(C)C)c(Cl)c1 (stereo not drawn) [I-367] |
| 3.39^[a] | CC(C)(C)C(O)(Cn1cncc1C#N)c1cc(Br)cc(Br)c1 (stereo not drawn) [I-490] |
| 2.20^[a] | N#Cc1cncn1CC(O)(C#Cc1ccccc1)C1(F)CC1 (stereo not drawn) [I-371] |
| 2.71^[a] | N#Cc1cncn1CC(O)(c1ccc(Cl)c(Br)c1)C1(F)CC1 (stereo not drawn) [I-538] |
| 2.64^[a] | N#Cc1cncn1CC(O)(c1ccc(Cl)c(F)c1Cl)C1(Cl)CC1 (stereo not drawn) [I-617] |
| 2.78^[a] | N#Cc1cncn1CC(O)(c1ccc(S(F)(F)(F)(F)F)cc1)C1(F)CC1 (stereo not drawn) [I-379] |
| 2.25^[a] | CC(C)CC#CC(O)(Cn1cncc1C#N)C1(F)CC1 (stereo not drawn) [I-540] |
| 3.80^[a] | N#Cc1cncn1CC(O)(CC1CCCCC1)c1ccc(Cl)cc1F (stereo not drawn) [I-468] |
| 1.57^[a] | OC(Cn1cncc1F)(c1ccc(Cl)cc1F)C1(F)CC1 (stereo not drawn) [I-437] |
| 3.48^[a] | CCCC#Cc1ccc(C(O)(Cn2cncc2C#N)C2(Cl)CC2)c(F)c1 (stereo not drawn) [I-652] |
| 2.97^[a] | N#Cc1cncn1CC(O)(CC1CC1)c1cc(F)c(Cl)c(Cl)c1 (stereo not drawn) [I-530] |
| 3.29^[a] | CCCC#Cc1ccc(C(O)(Cn2cncc2C#N)C2(F)CC2)c(F)c1 (stereo not drawn) [I-645] |
| 2.95^[a] | N#Cc1cncn1CC(O)(CC1CC1)c1cc(Cl)c(F)c(Cl)c1 (stereo not drawn) [I-493] |
| 3.52^[a] | C[Si](C)(C)C#CC(O)(Cn1cncc1C(F)(F)F)C1(Cl)CC1 (stereo not drawn) [I-607] |
| 2.82^[a] | CCCC(C)C#CC(O)(Cn1cncc1C#N)C1(Cl)CC1 (stereo not drawn) [I-658] |
| 2.62^[a] | N#Cc1cncn1CC(O)(C#CC1CCCC1)CC1CC1 (stereo not drawn) [I-452] |
| 2.88^[a] | N#Cc1cncn1CC(O)(c1ccc(Br)cc1Cl)C1CC1 (stereo not drawn) [I-420] |
| 2.75^[a] | N#Cc1cncn1CC(O)(c1cc(F)c(Cl)cc1Cl)C1(Cl)CC1 (stereo not drawn) [I-585] |

Continued, molecule first:

| SMILES | LogP |
| --- | --- |
| Cc1ccc(C(C)(O)Cn2cncc2C#N)cc1 (stereo not drawn) [I-340] | 1.75^[a] |
| CC(O)(Cn1cncc1C#N)c1cnc(Oc2ccc(C(F)F)cc2)cc1C(F)(F)F (stereo not drawn) [I-234] | 2.94^[a] |
| CC(O)(Cn1cncc1C#N)c1cnc(Oc2ccc(Br)cc2)cc1C(F)F (stereo not drawn) [I-258] | 2.68^[a] |
| CC(O)(Cn1cncc1C#N)c1ccc(Oc2ccc(Cl)cc2)cc1C(F)(F)F (stereo not drawn) [I-209] | 3.51^[a] |
| N#Cc1cncn1CC(O)c1ccc(Oc2ccc(I)cc2)cc1F (stereo not drawn) [I-49] | 3.24^[a] |
| N#Cc1cncn1CC(O)c1ccc(Oc2ccc(Cl)cc2)cc1Cl (stereo not drawn) [I-22] | 3.19^[a] |
| N#Cc1cncn1CC(O)c1ccc(Oc2ccc(C(F)(F)F)nc2)nc1C(F)(F)F (stereo not drawn) [I-143] | 2.56^[a] |
| Cc1ccc(Oc2ccc(C(C)(O)Cn3cncc3Cl)c(Cl)c2)cc1 (stereo not drawn) [I-156] | 3.13^[a] |
| CC(=O)c1cncn1CC(C)(O)c1cnc(Oc2ccc(C(F)(F)F)cc2)cc1Br (stereo not drawn) [I-252] | 2.84^[a] |
| OC(Cn1cncc1Cl)c1ccc(Oc2cccnc2)cc1Cl (stereo not drawn) [I-78] | 1.13^[a] |
| N#Cc1cncn1CC(O)c1ccc(Cl)cc1Cl (stereo not drawn) [I-144] | 2.12^[a] |
| CC(=O)c1cncn1CC(C)(O)c1ccc(Oc2ccc(Br)cc2)cc1F (stereo not drawn) [I-190] | 2.75^[a] |
| N#Cc1cncn1CC(O)c1cnc(Oc2ccc(OC(F)(F)F)cc2)cc1C(F)(F)F (stereo not drawn) [I-125] | 3.35^[a] |
| N#Cc1cncn1CC(O)c1cnc(Oc2ccc(Cl)cc2F)cc1C(F)(F)F (stereo not drawn) [I-114] | 3.13^[a] |
| OC(Cn1cncc1Cl)c1ccc(Oc2ccc(OC(F)(F)F)cc2)cc1Cl (stereo not drawn) [I-04] | 2.82^[a] |
| CC(O)(Cn1cncc1F)c1ccc(Oc2ccc(Cl)cc2)cc1C(F)(F)F (stereo not drawn) [I-211] | 2.64^[a] |
| CCCCC(O)(Cn1cncc1C#N)c1ccc(Cl)cc1F (stereo not drawn) [I-263] | 3.19^[a] |
| CCCC(C)C(O)(Cn1cncc1C#N)c1ccc(Cl)cc1Cl (single isomer, unassigned) [I-316] | 3.72^[a] |
| N#Cc1cncn1CC(O)(c1ccc(Cl)cc1Cl)C1CC1 (stereo not drawn) [I-304] | 2.77^[a] |
| N#Cc1cncn1CC(O)c1ccc(Cl)cc1 (stereo not drawn) [I-112] | 1.53^[a] |
| OC(Cn1cncc1F)c1ccc(Oc2ccc(S(F)(F)(F)(F)F)cc2)nc1C(F)(F)F (stereo not drawn) [I-147] | 2.59^[a] |
| N#Cc1cncn1CC(O)c1ccc(Oc2ccc(Br)cc2)nc1C(F)(F)F (stereo not drawn) [I-128] | 3.09^[a] |
| CC(=O)OC(Cn1cncc1C#N)c1ccc(Oc2ccc(Cl)cc2)cc1C(F)(F)F (stereo not drawn) [I-86] | 3.7^8[a] |
| OC(Cn1cncc1Cl)c1ccc(Oc2ccc(Cl)cc2)nc1C(F)(F)F (stereo not drawn) [I-34] | 2.51^[a] |

| SMILES | LogP |
| --- | --- |
| CC(O)(Cn1cncc1Cl)c1ccc(Oc2ccc(Cl)cn2)cc1Cl (stereo not drawn) [I-181] | 2.28^[a] |
| N#Cc1cncn1CC(O)c1cnc(Oc2ccc(C(F)F)cc2)cc1C(F)(F)F (stereo not drawn) [I-115] | 2.80^[a] |
| CCOC(Cn1cncc1C#N)c1ccc(Oc2ccc(Br)cc2)cc1Br (stereo not drawn) [I-64] | 4.64^[a] |
| N#Cc1cncn1CC(O)(c1ccc(C2CC2)cc1Cl)C1(Cl)CC1 (stereo not drawn) [I-332] | 2.88^[a] |
| CC(O)(Cn1cncc1C(F)(F)F)c1ccc(Oc2ccc(Cl)cc2)cc1F (stereo not drawn) [I-205] | 3.83^[a] |
| Cc1ccc(C#CC(O)(Cn2cncc2C#N)C2(Cl)CC2)cc1 (stereo not drawn) [I-293] | 2.82^[a] |
| CC(O)(Cn1cncc1Cl)c1ccc(Oc2ccc(Cl)cc2)cc1C(F)(F)F (stereo not drawn) [I-168] | 2.80^[a] |
| CC(C)(C)c1ccc(C#CC(O)(Cn2cncc2C#N)C2(Cl)CC2)cc1 (stereo not drawn) [I-317] | 3.73^[a] |
| OC(Cn1cncc1Cl)c1cnc(Oc2ccc(Cl)cc2)cc1C(F)(F)F (stereo not drawn) [I-25] | 2.55^[a] |
| CC(C)(C)C(O)(Cn1cncc1C#N)c1ccc(F)cc1 (stereo not drawn) [I-347] | 2.51^[a] |
| CC(O)(Cn1cncc1Cl)c1ccc(Oc2ccc(Cl)nc2)cc1Cl (stereo not drawn) [I-176] | 2.13^[a] |
| CC(C)(C)CC(O)(Cn1cncc1C#N)c1ccccc1 (stereo not drawn) [I-242] | 2.77^[a] |
| CC(O)(Cn1cncc1Cl)c1ccc(Oc2ccc(Cl)cc2)nc1C(F)(F)F (stereo not drawn) [I-180] | 2.63^[a] |
| N#Cc1cncn1CC(O)(c1ccc(F)cc1F)C1(F)CC1 (stereo not drawn) [I-352] | 2.08^[a] |
| CCCCC(O)(Cn1cncc1C#N)c1ccccc1F (stereo not drawn) [I-287] | 2.51^[a] |
| Cc1ccccc1C(O)(Cn1cncc1C#N)C1(Cl)CC1 (stereo not drawn) [I-278] | 1.29^[a] |
| CCCCC(O)(Cn1cncc1C#N)c1ccc(C(F)(F)F)cc1F (stereo not drawn) [I-267] | 3.35^[a] |
| CCC(=O)OC(Cn1cncc1F)c1ccc(Oc2ccc(Cl)cc2)cc1C(F)(F)F (stereo not drawn) [I-105] | 3.54^[a] |
| N#Cc1cncn1CC(O)c1ccc(Oc2ccc(Cl)cc2)cc1F (stereo not drawn) [I-54] | 2.94^[a] |
| CCOC(Cn1cncc1Cl)c1ccc(Oc2ccc(Br)cc2)cc1Br (stereo not drawn) [I-58] | 4.21^[a] |
| OC(Cn1cncc1Cl)c1ccc(Oc2ccc(C(F)(F)F)cc2)c(Br)c1 (stereo not drawn) [I-12] | 2.75^[a] |
| N#Cc1cncn1CC(O)(c1ccc(Cl)cc1F)C1(Cl)CC1 (stereo not drawn) [I-358] | 2.57^[a] |
| CC(C)(C)c1ccc(C(O)(Cn2cncc2C#N)C2(Cl)CC2)c(Cl)c1 (stereo not drawn) [I-354] | 3.39^[a] |
| OC(Cn1cncc1F)c1cnc(Oc2ccc(C(F)(F)F)cc2)cc1Br (stereo not drawn) [I-122] | 1.94^[a] |

Same assay, conditions: reversed phase HPLC column; method [a]: LC-UV, acidic range, 0.1% formic acid in water and acetonitrile as eluent (linear gradient from 10% to 95% acetonitrile)

| chromatographic logP | SMILES |
| --- | --- |
| 0.92 | N#Cc1cncn1CC(=O)c1ccco1 [IX-146] |
| 1.88 | N#Cc1cncn1CC(=O)c1ccc(Cl)s1 [IX-125] |
| 3.71 | CCC(=O)c1cncn1CC(=O)c1ccc(Oc2ccc(Br)cc2)cc1C(F)(F)F [IX-139] |
